Measured values as given in PubChem BioAssay (NCI).
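Exposure lasted 48 hours, with cells grown in 96-well plates and compounds tested at five concentrations. At the GI50, growth is halved. The concentration for full growth arrest is given as TGI.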

Key:
Test in all cases: DTP human tumour cell line panel, 48 h
786-0 renal = test system: 786-0 renal
A498 renal = test system: A498 renal
A549 NSCLC = test system: A549 NSCLC
ACHN renal = test system: ACHN renal
BT-549 breast = test system: BT-549 breast
CAKI-1 renal = test system: CAKI-1 renal
CCRF-CEM leukemia = test system: CCRF-CEM leukemia
COLO 205 colon = test system: COLO 205 colon
DU-145 prostate = test system: DU-145 prostate
EKVX NSCLC = test system: EKVX NSCLC
HCC-2998 colon = test system: HCC-2998 colon
HCT-116 colon = test system: HCT-116 colon
HCT-15 colon = test system: HCT-15 colon
HL-60(TB) leukemia = test system: HL-60(TB) leukemia
HOP-62 NSCLC = test system: HOP-62 NSCLC
HOP-92 NSCLC = test system: HOP-92 NSCLC
HS 578T breast = test system: HS 578T breast
HT29 colon = test system: HT29 colon
IGROV1 ovarian = test system: IGROV1 ovarian
K-562 leukemia = test system: K-562 leukemia
KM12 colon = test system: KM12 colon
LOX IMVI melanoma = test system: LOX IMVI melanoma
M14 melanoma = test system: M14 melanoma
MALME-3M melanoma = test system: MALME-3M melanoma
MCF7 breast = test system: MCF7 breast
MDA-MB-231 breast = test system: MDA-MB-231 breast
MDA-MB-435 = test system: MDA-MB-435
MDA-MB-468 breast = test system: MDA-MB-468 breast
MOLT-4 leukemia = test system: MOLT-4 leukemia
NCI-H226 lung = test system: NCI-H226 lung
NCI-H23 lung = test system: NCI-H23 lung
NCI-H460 lung = test system: NCI-H460 lung
NCI-H522 lung = test system: NCI-H522 lung
NCI/ADR-RES ovarian = test system: NCI/ADR-RES ovarian
OVCAR-3 ovarian = test system: OVCAR-3 ovarian
OVCAR-4 ovarian = test system: OVCAR-4 ovarian
OVCAR-5 ovarian = test system: OVCAR-5 ovarian
OVCAR-8 ovarian = test system: OVCAR-8 ovarian
PC-3 prostate = test system: PC-3 prostate
RPMI-8226 leukemia = test system: RPMI-8226 leukemia
RXF 393 renal = test system: RXF 393 renal
SF-268 CNS = test system: SF-268 CNS
SF-295 CNS = test system: SF-295 CNS
SF-539 CNS = test system: SF-539 CNS
SK-MEL-2 melanoma = test system: SK-MEL-2 melanoma
SK-MEL-28 melanoma = test system: SK-MEL-28 melanoma
SK-MEL-5 melanoma = test system: SK-MEL-5 melanoma
SK-OV-3 ovarian = test system: SK-OV-3 ovarian
SN12C renal = test system: SN12C renal
SNB-19 CNS = test system: SNB-19 CNS
SNB-75 CNS = test system: SNB-75 CNS
SR leukemia = test system: SR leukemia
SW-620 colon = test system: SW-620 colon
T-47D breast = test system: T-47D breast
TK-10 renal = test system: TK-10 renal
U251 CNS = test system: U251 CNS
UACC-257 melanoma = test system: UACC-257 melanoma
UACC-62 melanoma = test system: UACC-62 melanoma
UO-31 renal = test system: UO-31 renal

Compound: CC(C)(C)c1cc(/C=C2\S/C(=N/c3ncn[nH]3)NC2=O)cc(C(C)(C)C)c1O
- GI50 (786-0 renal): 2950 nM
- TGI (786-0 renal): 13.3 µM
- GI50 (A498 renal): 1770 nM
- TGI (A498 renal): 10.5 µM
- GI50 (A549 NSCLC): 1120 nM
- TGI (A549 NSCLC): 13.8 µM
- GI50 (ACHN renal): 691 nM
- TGI (ACHN renal): 12.6 µM
- GI50 (BT-549 breast): 2310 nM
- TGI (BT-549 breast): 11.8 µM
- GI50 (CAKI-1 renal): 1370 nM
- TGI (CAKI-1 renal): 16.7 µM
- GI50 (CCRF-CEM leukemia): 706 nM
- TGI (CCRF-CEM leukemia): 6.5 µM
- GI50 (COLO 205 colon): 1990 nM
- TGI (COLO 205 colon): 12.8 µM
- GI50 (DU-145 prostate): 2530 nM
- TGI (DU-145 prostate): 21.5 µM
- GI50 (EKVX NSCLC): 2150 nM
- TGI (EKVX NSCLC): 12.1 µM
- GI50 (HCC-2998 colon): 3.23 µM
- TGI (HCC-2998 colon): 16.9 µM
- GI50 (HCT-116 colon): 978 nM
- TGI (HCT-116 colon): 11.1 µM
- GI50 (HCT-15 colon): 455 nM
- TGI (HCT-15 colon): 12.8 µM
- GI50 (HL-60(TB) leukemia): 2730 nM
- TGI (HL-60(TB) leukemia): 18 µM
- GI50 (HOP-62 NSCLC): 999 nM
- TGI (HOP-62 NSCLC): 18.7 µM
- GI50 (HOP-92 NSCLC): 1720 nM
- TGI (HOP-92 NSCLC): 13.4 µM
- GI50 (HS 578T breast): 2370 nM
- TGI (HS 578T breast): 8.47 µM
- GI50 (HT29 colon): 3.03 µM
- TGI (HT29 colon): 19.4 µM
- GI50 (IGROV1 ovarian): 2040 nM
- TGI (IGROV1 ovarian): 14.7 µM
- GI50 (K-562 leukemia): 1440 nM
- TGI (K-562 leukemia): 54.3 µM
- GI50 (KM12 colon): 3.79 µM
- TGI (KM12 colon): 17 µM
- GI50 (LOX IMVI melanoma): 710 nM
- TGI (LOX IMVI melanoma): 12.7 µM
- GI50 (M14 melanoma): 1980 nM
- TGI (M14 melanoma): 16.3 µM
- GI50 (MALME-3M melanoma): 3.74 µM
- TGI (MALME-3M melanoma): 18.9 µM
- GI50 (MCF7 breast): 1830 nM
- TGI (MCF7 breast): 13 µM
- GI50 (MDA-MB-231 breast): 2910 nM
- TGI (MDA-MB-231 breast): 14.8 µM
- GI50 (MDA-MB-435): 2770 nM
- TGI (MDA-MB-435): 14.9 µM
- GI50 (MDA-MB-468 breast): 2750 nM
- TGI (MDA-MB-468 breast): 15.5 µM
- GI50 (MOLT-4 leukemia): 1160 nM
- TGI (MOLT-4 leukemia): 13.7 µM
- GI50 (NCI-H226 lung): 1800 nM
- TGI (NCI-H226 lung): 14.3 µM
- GI50 (NCI-H23 lung): 2450 nM
- TGI (NCI-H23 lung): 17.3 µM
- GI50 (NCI-H460 lung): 402 nM
- TGI (NCI-H460 lung): 10.1 µM
- GI50 (NCI-H522 lung): 3.78 µM
- TGI (NCI-H522 lung): 17.9 µM
- GI50 (NCI/ADR-RES ovarian): 472 nM
- TGI (NCI/ADR-RES ovarian): 14.4 µM
- GI50 (OVCAR-3 ovarian): 2400 nM
- TGI (OVCAR-3 ovarian): 15.2 µM
- GI50 (OVCAR-4 ovarian): 2310 nM
- TGI (OVCAR-4 ovarian): 16.3 µM
- GI50 (OVCAR-5 ovarian): 4.52 µM
- TGI (OVCAR-5 ovarian): 17.7 µM
- GI50 (OVCAR-8 ovarian): 1760 nM
- TGI (OVCAR-8 ovarian): 14.3 µM
- GI50 (PC-3 prostate): 762 nM
- TGI (PC-3 prostate): 22.1 µM
- GI50 (RPMI-8226 leukemia): 2600 nM
- TGI (RPMI-8226 leukemia): 33.8 µM
- GI50 (RXF 393 renal): 2030 nM
- TGI (RXF 393 renal): 8.35 µM
- GI50 (SF-268 CNS): 2610 nM
- TGI (SF-268 CNS): 16.6 µM
- GI50 (SF-295 CNS): 593 nM
- TGI (SF-295 CNS): 12.7 µM
- GI50 (SF-539 CNS): 2890 nM
- TGI (SF-539 CNS): 12.6 µM
- GI50 (SK-MEL-2 melanoma): 2630 nM
- TGI (SK-MEL-2 melanoma): 15.9 µM
- GI50 (SK-MEL-28 melanoma): 2930 nM
- TGI (SK-MEL-28 melanoma): 14.4 µM
- GI50 (SK-MEL-5 melanoma): 1360 nM
- TGI (SK-MEL-5 melanoma): 9.78 µM
- GI50 (SK-OV-3 ovarian): 4.83 µM
- TGI (SK-OV-3 ovarian): 20.5 µM
- GI50 (SN12C renal): 2080 nM
- TGI (SN12C renal): 13.3 µM
- GI50 (SNB-19 CNS): 1500 nM
- TGI (SNB-19 CNS): 12.9 µM
- GI50 (SNB-75 CNS): 2340 nM
- TGI (SNB-75 CNS): 13.6 µM
- GI50 (SR leukemia): 935 nM
- TGI (SR leukemia): 29.8 µM
- GI50 (SW-620 colon): 2130 nM
- TGI (SW-620 colon): 13.7 µM
- GI50 (T-47D breast): 2290 nM
- TGI (T-47D breast): 44.4 µM
- GI50 (TK-10 renal): 4.82 µM
- TGI (TK-10 renal): 20.2 µM
- GI50 (U251 CNS): 801 nM
- TGI (U251 CNS): 7.9 µM
- GI50 (UACC-257 melanoma): 3.85 µM
- TGI (UACC-257 melanoma): 16.7 µM
- GI50 (UACC-62 melanoma): 2280 nM
- TGI (UACC-62 melanoma): 11.8 µM
- GI50 (UO-31 renal): 882 nM
- TGI (UO-31 renal): 12.3 µM
